Assay results from article PMC10303059, “Chloroquine and Hydroxychloroquine, as Proteasome Inhibitors, Upregulate the Expression and Activity of Organic Anion Transporter 3” (Pharmaceutics, 2023).

Test system: T1, 20S proteasome
T1 construct: gene PSMB5; endogenous proteasome of COS-7 cells expressing OAT3; with Proteasome subunit beta type-6; Proteasome subunit beta type-7; Proteasome subunit beta type-1; Proteasome subunit beta type-2; Proteasome subunit beta type-3; Proteasome subunit beta type-4; Proteasome subunit alpha type-1; Proteasome subunit alpha type-2; Proteasome subunit alpha type-3; Proteasome subunit alpha type-4; Proteasome subunit alpha type-5; Proteasome subunit alpha type-6; Proteasome subunit alpha type-7
Assay: […] proteasome assay kit (fluorescence) after treatment of intact cells
Assay type: cell-based
Settings: OAT3-expressing COS-7 cells treated 4 h; range over 10-100 µM; direct binding not shown

CCN(CCO)CCCC(C)Nc1ccnc2cc(Cl)ccc12 (stereo not shown) [Hydroxychloroquine]
% inhibition at 10-100 μM: 23–61%
